According to US20210002282A1 (DR. REDDY'S LABORATORIES LIMITED, priority 2018, published 2021):
Where two headings read alike, the source gives them in different places.

Columns and labels:
[1] = Hygroscopicity of solid forms (statement only); format: physicochemical
[2] = 25° C. ± 2° C. 60% RH ± 5RH, 1 Month
[3] = 25° C. ± 2° C. 60% RH ± 5RH, 3 Months
[4] = 25° C. ± 2° C. 60% RH ± 5RH, Initial
[5] = 40° C. ± 2° C. 75% RH ± 5RH, 1 Month
[6] = 40° C. ± 2° C. 75% RH ± 5RH, 3 Months
[7] = 40° C. ± 2° C. 75% RH ± 5RH, Initial

C=CC(=O)N1CCC[C@@H](n2nc(-c3ccc(Oc4ccccc4)cc3)c3c(N)ncnc32)C1 [Form D19, Ibrutinib]
hygroscopicity [1]: non-hygroscopic | % Total Impurities [2]: 0.42% | % Water content [2]: 0.20% | Description [2]: Off-White | Hexanoic acid content (%) [2]: 21.73% | % Total Impurities [3]: 0.42% | % Water content [3]: 0.09% | Description [3]: Off-White | Hexanoic acid content (%) [3]: 21.24% | % Total Impurities [4]: 0.41% | % Water content [4]: 0.19% | Description [4]: Off-White | Hexanoic acid content (%) [4]: 23.13% | PXRD [4]: Crystalline | % Total Impurities [5]: 0.49% | % Water content [5]: 0.13% | Description [5]: Off-White | Hexanoic acid content (%) [5]: 21.48% | % Total Impurities [6]: 0.50% | % Water content [6]: 0.11% | Description [6]: Off-White | Hexanoic acid content (%) [6]: 20.79% | % Total Impurities [7]: 0.41% | % Water content [7]: 0.19% | Description [7]: Off-White | Hexanoic acid content (%) [7]: 23.13% | PXRD [7]: Crystalline

C=CC(=O)N1CCC[C@@H](n2nc(-c3ccc(Oc4ccccc4)cc3)c3c(N)ncnc32)C1 [Form D18, Ibrutinib]
hygroscopicity [1]: non-hygroscopic | % Total Impurities [2]: 0.46% | % Water content [2]: 0.10% | Description [2]: White | Octanoic acid content (%) [2]: 24.70% | % Total Impurities [3]: 0.39% | % Water content [3]: 0.19% | Description [3]: White | Octanoic acid content (%) [3]: 25.57% | % Total Impurities [4]: 0.38% | % Water content [4]: 0.13% | Description [4]: White | Octanoic acid content (%) [4]: 25.24% | PXRD [4]: Crystalline | % Total Impurities [5]: 0.45% | % Water content [5]: 0.16% | Description [5]: White | Octanoic acid content (%) [5]: 24.70% | % Total Impurities [6]: 0.45% | % Water content [6]: 0.29% | Description [6]: White | Octanoic acid content (%) [6]: 24.99% | % Total Impurities [7]: 0.38% | % Water content [7]: 0.13% | Description [7]: White | Octanoic acid content (%) [7]: 25.24% | PXRD [7]: Crystalline
